Data: US7384927B2, “Alkylated porphyrins as pesticides acting both in the presence and absence of light” (priority 2003, dated 2008)

Experiments:
Format in all cases: in vivo
Ceratitis capitata flies [1] = assay: Insecticidal action in the dark: fly survival after porphyrin bait; settings: for mortality of the flies in the dark: C. capitata, even at the largest porphyrin dose (8.1 μM); for Survival (% of control untreated flies): dark, fed 24 h, survival 12 h after change to porphyrin-free bait
Procedure: For comparison, data obtained with two conventional porphyrins (as those described in WO 97/29637) offered to the insects for 24 h at a 3.0 and 8.1 μmolar concentration in the same bait are also shown. In all cases, the survival was determined 12 hours after changing food supply from a porphyrin-containing to a porphyrin-free bait. […] These flies were then used in the various experimental sessions. […] The number of survivors was evaluated 12 h after switching from administration of a porphyrin-containing bait to a porphyrin-free bait. In none of the experiments was mortality or any apparent toxic effect observed in control flies (flies not fed with porphyrin, see survival at 0 μM porphyrin concentration).

Ceratitis capitata flies [2] = assay: Photoinsecticidal action: fly survival after bait and visible light irradiation (artificial lamp); settings: 8 μM in bait, survival 10 h after irradiation
Procedure: (§1) Porphyrins: • a) meso[tri(N-methyl-pyridyl), mono(N-dodecyl-pyridyl)]porphine (abbr.: C12) • b) meso[tri(N-methyl-pyridyl), mono(N-tetradecyl-pyridyl)]porphine (abbr.: C14) • c) meso[tri(N-methyl-pyridyl), mono(N-octadecyl-pyridyl)]porphine (abbr.: C18) Bait: Aqueous solution containing 10% sucrose and 1% autolysed yeast Flies: • a) Ceratitis capitata (fruit fly) age: 1 week; weight: 5-6 mg • b) Bactrocera oleae (olive fly) age: 10 days; weight: 4-4.5 mg • c) Stomoxis calcitrans (stable fly) age: 10 days; weight: 12 mg Irradiation: • a) High pressure halogen lamp, equipped with infrared and UV filters, emission 360-850 nm, operated at intensities in the 760-2,000 μE s^−1m^−2 range • b) Sunlight, mid June at Padua latitude, average intensity of […] μE s^−1m^−2 with minimum and maximum values of 950 and, respectively, 1,380 μE s^−1m^−2
The irradiations were performed for 1 h, then the flies were kept in dim light for monitoring the survival. Control flies were irradiated under identical conditions after feeding with a porphyrin-free bait.
The irradiations were performed for 1 h at a fluence-rate of 1220 μE s^−1m^−2. The survival was evaluated 10 h after the end of irradiation. […] The porphyrins are abbreviated as following: HP: haematoporphyrin; C1: meso-tetra(N-methyl-pyridyl)porphine.
The survival was evaluated 10 h after the end of irradiation.
An appropriate number of flies (50 flies per each experiment) was caged in 115×55×70 mm Plexiglas cages with several holes (ø=0.5 mm) and starved for 36 h. Then, depending on the protocol to be adopted for each specific experiment, the flies were fed with the bait (10% sucrose and 1% autolysed yeast in neutral aqueous solution), which was either porphyrin-free or added with a predetermined concentration of the porphyrin. These flies were then used in the various experimental sessions. […]

Ceratitis capitata flies [3] = assay: Photoinsecticidal action: fly survival after bait and sunlight irradiation; settings: 8 μM in bait, 12 h after feeding, survival 1 h after irradiation
Procedure: as §1
The survival was evaluated 1 h after the end of irradiation.
An appropriate number of flies (50 flies per each experiment) was caged in 115×55×70 mm Plexiglas cages with several holes (ø=0.5 mm) and starved for 36 h. Then, depending on the protocol to be adopted for each specific experiment, the flies were fed with the bait (10% sucrose and 1% autolysed yeast in neutral aqueous solution), which was either porphyrin-free or added with a predetermined concentration of the porphyrin. These flies were then used in the various experimental sessions.

[4] = fluence-rate 760 μE s^−1m^−2, irradiated 24 h after feeding (title)
[5] = fluence-rate 1220 μE s^−1m^−2, irradiated 24 h after feeding (title)
[6] = fluence-rate 1500 μE s^−1m^−2, irradiated 24 h after feeding (title)
[7] = fluence-rate 2000 μE s^−1m^−2, irradiated 24 h after feeding (title)
[8] = time interval feeding-irradiation 0 h, irradiation 1 h at 1220 μE s^−1m^−2
[9] = time interval feeding-irradiation 12 h, irradiation 1 h at 1220 μE s^−1m^−2
[10] = time interval feeding-irradiation 24 h, irradiation 1 h at 1220 μE s^−1m^−2
[11] = time interval feeding-irradiation 48 h, irradiation 1 h at 1220 μE s^−1m^−2

| SMILES | mortality of the flies in the dark (Ceratitis capitata flies [1]) | Survival (% of control untreated flies) (Ceratitis capitata flies [1]; 3.00 μM in bait) | Survival (% of control untreated flies) (Ceratitis capitata flies [1]; 8.10 μM in bait) | Survival (% of control untreated flies) (Ceratitis capitata flies [2]; [4]) | Survival (% of control untreated flies) (Ceratitis capitata flies [2]; [5]) | Survival (% of control untreated flies) (Ceratitis capitata flies [2]; [6]) | Survival (% of control untreated flies) (Ceratitis capitata flies [2]; [7]) | Survival (% of control untreated flies) (Ceratitis capitata flies [2]; [8]) | Survival (% of control untreated flies) (Ceratitis capitata flies [2]; [9]) | Survival (% of control untreated flies) (Ceratitis capitata flies [2]; [10]) | Survival (% of control untreated flies) (Ceratitis capitata flies [2]; [11]) | Survival (% of control untreated flies) (Ceratitis capitata flies [3]; sunlight 15 min) | Survival (% of control untreated flies) (Ceratitis capitata flies [3]; sunlight 30 min) | Survival (% of control untreated flies) (Ceratitis capitata flies [3]; sunlight 45 min) | Survival (% of control untreated flies) (Ceratitis capitata flies [3]; sunlight 60 min) |
| --- | --- | --- | --- | --- | --- | --- | --- | --- | --- | --- | --- | --- | --- | --- | --- |
| C[n+]1ccc(-c2c3nc(c(-c4cc[n+](C)cc4)c4ccc([nH]4)c(-c4cc[n+](C)cc4)c4nc(c(-c5cc[n+](C)cc5)c5ccc2[nH]5)C=C4)C=C3)cc1 [C1, Meso-tetra (N-methyl-pyridyl) porphine, reference compound] | no mortality of the flies was observed | 100 % of control untreated flies | 100 % of control untreated flies | 100 % of control untreated flies | 90 % of control untreated flies | 81 % of control untreated flies | 73 % of control untreated flies | 90 % of control untreated flies | 94 % of control untreated flies | 100 % of control untreated flies | 97 % of control untreated flies | 100 % of control untreated flies | 100 % of control untreated flies | 93 % of control untreated flies | 97 % of control untreated flies |
| CC1=C(CCC(=O)O)c2cc3[nH]c(cc4nc(cc5[nH]c(cc1n2)c(C)c5C(C)O)C(C)=C4C(C)O)c(C)c3CCC(=O)O (stereo not drawn) [Hp, Haematoporphyrin, reference compound] | no mortality of the flies was observed | 100 % of control untreated flies | 100 % of control untreated flies | 81 % of control untreated flies | 20 % of control untreated flies | 11 % of control untreated flies | 8 % of control untreated flies | 20 % of control untreated flies | 37 % of control untreated flies | 58 % of control untreated flies | 61 % of control untreated flies | 75 % of control untreated flies | 70 % of control untreated flies | 64 % of control untreated flies | 40 % of control untreated flies |
